Legend:
[1] = molecular target: T1, SMARCA4 (Homo sapiens, UniProt P51532); assay: Cellular degradation assay, SMARCA4 (Table 1); type: cell-based
T1 construct: endogenous in cells

[2] = molecular target: T2, SMARCA2 (Homo sapiens, UniProt P51531); assay: SMARCA2 Cellular Degradation Assay (Western blot analysis on Jess platform); type: cell-based; details: for DC50 / Dmax: cellular degradation; for Fold Selectivity SMARCA4/2: ratio DC50 SMARCA4 / DC50 SMARCA2
T2 construct: endogenous in cells
Procedure: SMARCA2 Cellular Degradation Assay
Western Blot Analysis for SMARCA2 Degradation
Frozen cell pellets were thawed on ice and resuspended in RIPA lysis buffer (Millipore, Cat. No. 20-188) supplemented with 0.2% SDS (Fisher Scientific, Cat. No. 24730020), 200 mM β-glycerophosphate (Alfa Aesar, Cat. No. J62121), 500 mM NaF (Rigaku, Cat. No. 1008046), protease inhibitor (1 tablet per 10 mL, Sigma, Cat. No. 11836170001), 250 U/μL benzonase (Millipore, Cat. No. 71206), 200 mM sodium orthovanadate (FivePhoton, Cat. No. ActVO-4), and 100 mM PMSF (Sigma, Cat. No. 10837091001). 50 μL lysis buffer was used to lyse each pellet containing 5×10E5-1×10E6 live cells extracted from tumors. Lysates were centrifuged for 10 mins at 20,817×g and lysate supernatants were saved for further analysis. Protein levels were determined by the BCA Assay performed according to manufacturer's protocol (EMD Millipore, Cat. No. 71285-3). Samples were evaluated by Western blot analysis on the Jess Platform (ProteinSimple). Lysates were diluted with complete lysis buffer (as described above) and 5 μg of total proteins were loaded onto each capillary. Samples were prepared using the ProteinSimple EZ Standard Pack 1 (Cat. No. PS-ST01EZ-8; containing tubes with powdered (5×) Fluorescent Master Mix, DTT, and biotinylated ladder) and run using the ProteinSimple 25-Capillary Cartridge kit (Cat. No. SM-W004; containing 25-capillary cartridge Wash reagent, and 10× Sample Buffer reagent), the ProteinSimple Anti-Rabbit HRP Detection Module for Jess (Cat. No. DM-001; containing Antibody Diluent, anti-rabbit secondary antibody, Luminol-S, Peroxide, and Streptavidin-HRP), and the ProteinSimple Anti-Mouse NIR Detection Module for Jess (Cat. No. DM-009; containing Antibody Diluent, anti-mouse NIR secondary antibody, and Streptavidin-NIR) as the following describes. The DTT was reconstituted with 40 μL water to make a 400 mM solution, 20 μL of the DTT solution plus 20 μL of 10× Sample Buffer were added to reconstitute the 5× Fluorescent Master Mix, and 20 μL of H2O was used to reconstitute the biotinylated ladder. For each sample, lysate (4 μL) was combined with 5× Fluorescent Master Mix (1 μL) and heated at 95° C. for 5 minutes. Samples were cooled and stored on ice. Primary antibody solution was made using anti-SMARCA2 antibody (Abcam, Cat. No. 240648, 1:10) and anti-beta-Actin antibody (Cell Signaling Technology, Cat. No. 3700S, 1:25) in antibody diluent. The 25-capillary cartridges were prepared per standard ProteinSimple protocol with each sample in a column. For the biotinylated ladder in column 1, the following were added: 5 µL of ladder sample in Row A, 10 μL of antibody diluent in Rows B and C, 10 μL of Streptavidin-NIR in Row D, and 15 μL of a 50:50 Luminol-s/Peroxide solution in Row E. For each test sample (columns 2-25), the following were added per column: 5 μL of sample in Row A, 10 μL of antibody diluent in Row B, 10 μL of primary antibody solution in Row C, 10 μL of secondary antibody in Row D, and 15 μL of a 50:50 Luminol-S/Peroxide solution in Row E. 500 μL wash buffer was added to the wash buffer wells in the cartridge and cartridge was spun at 1000×g for 5 minutes prior to loading into the Jess. Samples were run using the Chemiluminescence and Fluorescence immunoassays in the ProteinSimple Compass for SimpleWestern program (version 5.0.0). After running, SMARCA2, actin, and background curves were identified in the Compass software; note that in the Compass software, the electropherograms are also visualized as bands for comparison with standard Western blot outputs. The electropherogram area reading for each sample curve was normalized to that of the corresponding actin curve per column following background (capillary background) subtraction using the following equation: […]
Following normalization, the percentage of SMARCA2 remaining per sample relative to the vehicle control was calculated as follows: […]

T2 sequence (P51531 whole entry, species assumed): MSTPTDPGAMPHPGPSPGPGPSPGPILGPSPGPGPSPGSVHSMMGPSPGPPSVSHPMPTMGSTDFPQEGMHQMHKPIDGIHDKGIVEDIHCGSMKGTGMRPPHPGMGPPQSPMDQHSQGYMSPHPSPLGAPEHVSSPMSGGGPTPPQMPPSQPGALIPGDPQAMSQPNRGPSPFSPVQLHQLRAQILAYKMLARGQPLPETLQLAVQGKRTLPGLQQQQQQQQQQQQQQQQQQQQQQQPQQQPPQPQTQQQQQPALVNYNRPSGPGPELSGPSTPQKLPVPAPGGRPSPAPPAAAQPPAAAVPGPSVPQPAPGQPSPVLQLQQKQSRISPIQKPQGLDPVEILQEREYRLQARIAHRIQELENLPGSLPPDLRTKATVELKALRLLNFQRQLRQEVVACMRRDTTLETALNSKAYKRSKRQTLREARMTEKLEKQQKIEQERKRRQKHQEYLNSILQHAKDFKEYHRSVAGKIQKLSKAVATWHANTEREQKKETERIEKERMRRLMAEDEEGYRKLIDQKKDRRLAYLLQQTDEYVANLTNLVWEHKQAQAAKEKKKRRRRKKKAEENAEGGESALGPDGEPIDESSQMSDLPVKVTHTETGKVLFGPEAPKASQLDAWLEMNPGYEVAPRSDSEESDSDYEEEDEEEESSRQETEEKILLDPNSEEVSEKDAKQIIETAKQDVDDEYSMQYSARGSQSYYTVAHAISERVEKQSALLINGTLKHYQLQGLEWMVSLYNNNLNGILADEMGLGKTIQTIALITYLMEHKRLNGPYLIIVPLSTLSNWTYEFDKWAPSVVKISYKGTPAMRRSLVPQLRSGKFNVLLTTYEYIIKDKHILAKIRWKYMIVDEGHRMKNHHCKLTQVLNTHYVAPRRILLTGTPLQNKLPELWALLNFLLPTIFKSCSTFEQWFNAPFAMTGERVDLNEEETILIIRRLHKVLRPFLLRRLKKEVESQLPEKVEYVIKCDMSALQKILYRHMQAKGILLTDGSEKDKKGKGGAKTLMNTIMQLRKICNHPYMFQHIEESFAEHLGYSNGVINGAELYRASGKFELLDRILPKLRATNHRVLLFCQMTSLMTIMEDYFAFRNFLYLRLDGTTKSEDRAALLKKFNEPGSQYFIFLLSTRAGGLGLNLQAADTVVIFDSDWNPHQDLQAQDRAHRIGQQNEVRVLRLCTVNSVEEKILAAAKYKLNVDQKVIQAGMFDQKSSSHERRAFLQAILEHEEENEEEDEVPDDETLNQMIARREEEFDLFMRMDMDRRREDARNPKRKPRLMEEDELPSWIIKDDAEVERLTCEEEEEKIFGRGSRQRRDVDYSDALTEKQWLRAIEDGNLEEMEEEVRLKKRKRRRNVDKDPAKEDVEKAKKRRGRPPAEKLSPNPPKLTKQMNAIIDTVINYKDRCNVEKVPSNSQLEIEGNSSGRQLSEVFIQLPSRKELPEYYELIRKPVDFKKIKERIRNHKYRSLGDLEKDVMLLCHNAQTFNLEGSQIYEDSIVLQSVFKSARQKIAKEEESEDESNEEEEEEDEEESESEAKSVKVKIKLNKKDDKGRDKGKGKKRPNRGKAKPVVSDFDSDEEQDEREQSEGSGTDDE
T1 sequence (P51532 whole entry, species assumed): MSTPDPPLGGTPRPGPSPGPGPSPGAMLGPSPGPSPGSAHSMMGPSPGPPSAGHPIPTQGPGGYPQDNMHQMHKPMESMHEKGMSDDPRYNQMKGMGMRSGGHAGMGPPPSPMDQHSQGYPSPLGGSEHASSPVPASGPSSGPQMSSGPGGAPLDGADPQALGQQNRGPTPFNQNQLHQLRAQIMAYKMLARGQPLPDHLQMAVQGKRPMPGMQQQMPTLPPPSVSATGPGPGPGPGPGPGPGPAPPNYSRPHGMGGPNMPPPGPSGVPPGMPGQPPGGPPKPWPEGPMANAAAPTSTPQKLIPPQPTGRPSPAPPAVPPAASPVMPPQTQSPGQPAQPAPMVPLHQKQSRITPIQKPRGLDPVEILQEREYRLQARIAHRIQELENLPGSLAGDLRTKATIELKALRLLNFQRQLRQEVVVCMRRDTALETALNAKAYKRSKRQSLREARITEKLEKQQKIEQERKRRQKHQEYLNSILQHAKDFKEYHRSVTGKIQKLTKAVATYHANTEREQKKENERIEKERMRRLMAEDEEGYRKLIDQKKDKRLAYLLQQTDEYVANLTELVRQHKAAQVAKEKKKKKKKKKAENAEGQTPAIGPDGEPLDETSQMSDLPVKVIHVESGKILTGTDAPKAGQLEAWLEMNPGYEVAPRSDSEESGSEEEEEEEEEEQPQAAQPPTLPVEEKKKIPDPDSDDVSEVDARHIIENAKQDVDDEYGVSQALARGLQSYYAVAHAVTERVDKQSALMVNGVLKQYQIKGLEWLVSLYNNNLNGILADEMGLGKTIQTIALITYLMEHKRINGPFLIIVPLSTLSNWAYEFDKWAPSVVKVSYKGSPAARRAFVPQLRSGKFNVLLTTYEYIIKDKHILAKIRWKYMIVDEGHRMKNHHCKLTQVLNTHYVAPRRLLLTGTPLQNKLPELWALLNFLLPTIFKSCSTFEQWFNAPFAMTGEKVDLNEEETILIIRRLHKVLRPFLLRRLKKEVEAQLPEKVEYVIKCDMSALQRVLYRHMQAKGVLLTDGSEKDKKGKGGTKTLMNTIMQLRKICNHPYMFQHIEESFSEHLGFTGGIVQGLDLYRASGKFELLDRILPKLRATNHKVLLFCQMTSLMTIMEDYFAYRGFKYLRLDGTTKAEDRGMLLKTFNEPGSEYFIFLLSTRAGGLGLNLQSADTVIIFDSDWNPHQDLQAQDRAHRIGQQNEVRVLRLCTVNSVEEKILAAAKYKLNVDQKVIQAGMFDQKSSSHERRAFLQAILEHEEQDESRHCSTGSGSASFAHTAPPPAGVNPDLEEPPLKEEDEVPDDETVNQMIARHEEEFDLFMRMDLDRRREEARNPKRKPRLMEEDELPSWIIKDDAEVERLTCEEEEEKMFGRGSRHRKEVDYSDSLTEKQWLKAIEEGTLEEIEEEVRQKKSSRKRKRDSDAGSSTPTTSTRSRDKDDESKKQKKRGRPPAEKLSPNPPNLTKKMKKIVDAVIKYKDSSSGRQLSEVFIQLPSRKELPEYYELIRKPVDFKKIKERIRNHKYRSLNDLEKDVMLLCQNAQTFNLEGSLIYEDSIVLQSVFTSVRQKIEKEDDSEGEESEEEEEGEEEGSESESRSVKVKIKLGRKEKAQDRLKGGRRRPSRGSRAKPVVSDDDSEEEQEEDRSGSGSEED

SMILES | Dmax [1] [%] | DC50 [2] [nM] | Dmax [2] [%] | Fold Selectivity SMARCA4/2 [2] | DC50 [1] [nM]
CC(C)c1cc(C2(C(=O)N(C)C3CCN(C4COC5(CCN(c6ccc([C@H]7CCC(=O)NC7=O)cc6)CC5)C4)CC3)CCN(c3cnnc(-c4ccccc4O)c3)CC2)no1 (mixture of isomers) [Example 59, N-{1-[(3RS)-8-{4-[(3R)-2,6-dioxopiperidin-3-yl]phenyl}-1-oxa-8-azaspiro[4.5]decan-3-yl]piperidin-4-yl}-1-[6-(2-hydroxyphenyl)pyridazin-4-yl]-N-methyl-4-[5-(propan-2-yl)-1,2-oxazol-3-yl]piperidine-4-carboxamide] | 26 | 11.9 | 72.8 | 842 | 
Cc1cc(C2(C(=O)N(C)C3CCN(CCC4CCN(c5ccc(C6CCC(=O)NC6=O)c(F)c5)CC4)CC3)CCN(c3cnnc(-c4ccccc4O)c3)CC2)on1 (racemic) [Example 60, rac-N-{1-[2-(1-{4-[(3R)-2,6-dioxopiperidin-3-yl]-3-fluorophenyl}piperidin-4-yl)ethyl]piperidin-4-yl}-1-[6-(2-hydroxyphenyl)pyridazin-4-yl]-N-methyl-4-(3-methyl-1,2-oxazol-5-yl)piperidine-4-carboxamide] | 35.7 | 3.79 | 85.7 | 2639 | 
Cc1ccnn1C1(C(=O)N(C)C2CCN(CCC3CCN(c4cccc5c4n(C)c(=O)n5C4CCC(=O)NC4=O)CC3)CC2)CCN(c2cnnc(-c3ccccc3O)c2)CC1 (racemic) [Example 61, rac-N-{1-[2-(1-{1-[(3R)-2,6-dioxopiperidin-3-yl]-3-methyl-2-oxo-2,3-dihydro-1H-1,3-benzodiazol-4-yl}piperidin-4-yl)ethyl]piperidin-4-yl}-1-[6-(2-hydroxyphenyl)pyridazin-4-yl]-n-methyl-4-(5-methyl-1H-pyrazol-1-yl)piperidine-4-carboxamide] | 86.8 | 0.18 | 96.7 | 19 | 3.49
CN(C(=O)C1(c2ccnn2C)CCN(c2cnnc(-c3ccccc3O)c2)CC1)C1CCN(CCC2CCN(c3cccc4c3n(C)c(=O)n4C3CCC(=O)NC3=O)CC2)CC1 (racemic) [Example 62, rac-N-{1-[2-(1-{1-[(3R)-2,6-dioxopiperidin-3-yl]-3-methyl-2-oxo-2,3-dihydro-1H-1,3-benzodiazol-4-yl}piperidin-4-yl)ethyl]piperidin-4-yl}-1-[6-(2-hydroxyphenyl)pyridazin-4-yl]-N-methyl-4-(1-methyl-1H-pyrazol-5-yl)piperidine-4-carboxamide] | 52.3 | 0.25 | 93.2 | 602 | 151
Cc1ccnn1C1(C(=O)N(C)C2CCN(C3COC4(CCN(c5ccc([C@H]6CCC(=O)NC6=O)cc5)CC4)C3)CC2)CCN(c2cnnc(-c3ccccc3O)c2)CC1 (mixture of isomers) [Example 63, N-{1-[(3RS)-8-{4-[(3R)-2,6-dioxopiperidin-3-yl]phenyl}-1-oxa-8-azaspiro[4.5]decan-3-yl]piperidin-4-yl}-1-[6-(2-hydroxyphenyl)pyridazin-4-yl]-n-methyl-4-(5-methyl-1H-pyrazol-1-yl)piperidine-4-carboxamide] | 32.2 | 8.77 | 80.5 | 1140 | 
CN(C(=O)C1(c2cnn(C)c2)CCN(c2cnnc(-c3ccccc3O)c2)CC1)C1CCN(C2COC3(CCN(c4ccc([C@H]5CCC(=O)NC5=O)cc4)CC3)C2)CC1 (mixture of isomers) [Example 64, N-{1-[(3RS)-8-{4-[(3R)-2,6-dioxopiperidin-3-yl]phenyl}-1-oxa-8-azaspiro[4.5]decan-3-yl]piperidin-4-yl}-1-[6-(2-hydroxyphenyl)pyridazin-4-yl]-n-methyl-4-(1-methyl-1H-pyrazol-4-yl)piperidine-4-carboxamide] | 30.4 | 5.51 | 81.3 | 1815 | 

Next, values leading:

Dmax [1] [%] | DC50 [2] [nM] | Dmax [2] [%] | Fold Selectivity SMARCA4/2 [2] | DC50 [1] [nM] | SMILES
55.4 | 3.33 | 89.2 | 27 | 88.6 | Cc1ccnn1C1(C(=O)N(C)C2CCN(CCC3CCN(c4ccc(C5CCC(=O)NC5=O)c(F)c4)CC3)CC2)CCN(c2cnnc(-c3ccccc3O)c2)CC1 (racemic) [Example 65, rac-N-{1-[2-(1-{4-[(3R)-2,6-dioxopiperidin-3-yl]-3-fluorophenyl}piperidin-4-yl)ethyl]piperidin-4-yl}-1-[6-(2-hydroxyphenyl)pyridazin-4-yl]-n-methyl-4-(5-methyl-1H-pyrazol-1-yl)piperidine-4-carboxamide]
20.7 | 10.6 | 73.7 | 947 |  | Cn1ccc(OC2(C(=O)N3CC4(CN(CCC5CCN(c6ccc(C7CCC(=O)NC7=O)c(F)c6)CC5)C4)C3)CCN(c3cnnc(-c4ccccc4O)c3)CC2)n1 (racemic) [Example 66, rac-3-(2-fluoro-4-(4-(2-(6-(1-(6-(2-hydroxyphenyl)pyridazin-4-yl)-4-((1-methyl-1H-pyrazol-3-yl)oxy)piperidine-4-carbonyl)-2,6-diazaspiro[3.3]heptan-2-yl)ethyl)piperidin-1-yl)phenyl)piperidine-2,6-dione]
72.9 | 0.4 | 96.2 | 51 | 20.4 | Cn1ccc(OC2(C(=O)N3CC4(CN(CCC5CCN(c6cccc7c6n(C)c(=O)n7C6CCC(=O)NC6=O)CC5)C4)C3)CCN(c3cnnc(-c4ccccc4O)c3)CC2)n1 (racemic) [Example 67, rac-3-(4-(4-(2-(6-(1-(6-(2-hydroxyphenyl)pyridazin-4-yl)-4-((1-methyl-1H-pyrazol-3-yl)oxy)piperidine-4-carbonyl)-2,6-diazaspiro[3.3]heptan-2-yl)ethyl)piperidin-1-yl)-3-methyl-2-oxo-2,3-dihydro-1h-benzo[d]imidazol-1-yl)piperidine-2,6-dione]
66.9 | 0.57 | 93.2 | 34 | 19.2 | COC1(C(=O)N(C)C2CCN(CCC3CCN(c4cccc5c4n(C)c(=O)n5C4CCC(=O)NC4=O)CC3)CC2)CCN(c2cnnc(-c3ccccc3O)c2)CC1 (racemic) [Example 68, rac-N-(1-(2-(1-(1-(2,6-dioxopiperidin-3-yl)-3-methyl-2-oxo-2,3-dihydro-1H-benzo[d]imidazol-4-yl)piperidin-4-yl)ethyl)piperidin-4-yl)-1-(6-(2-hydroxyphenyl)pyridazin-4-yl)-4-methoxy-n-methylpiperidine-4-carboxamide]
44.1 | 6.23 | 85.3 | 1605 |  | CN(C(=O)C1(c2ccccc2)CCN(c2cnnc(-c3ccccc3O)c2)CC1)C1CCN(CCC2CCN(c3ccc(C4CCC(=O)NC4=O)cn3)CC2)CC1 (racemic) [Example 69, rac-N-(1-(2-(1-(5-(2,6-dioxopiperidin-3-yl)pyridin-2-yl)piperidin-4-yl)ethyl)piperidin-4-yl)-1-(6-(2-hydroxyphenyl)pyridazin-4-yl)-N-methyl-4-phenylpiperidine-4-carboxamide]
